# Data reported in patent publication US20240383908A1, “SYNTHESIS AND APPLICATION OF PHOSPHATASE DEGRADER” (HINOVA PHARMACEUTICALS INC., priority 2021, published 2024).
# Counter-ions that a name gives are not always drawn.
# Molecular target: T1, SHP2 protein (Homo sapiens, UniProt Q06124)
# T1 sequence (Q06124 1-593): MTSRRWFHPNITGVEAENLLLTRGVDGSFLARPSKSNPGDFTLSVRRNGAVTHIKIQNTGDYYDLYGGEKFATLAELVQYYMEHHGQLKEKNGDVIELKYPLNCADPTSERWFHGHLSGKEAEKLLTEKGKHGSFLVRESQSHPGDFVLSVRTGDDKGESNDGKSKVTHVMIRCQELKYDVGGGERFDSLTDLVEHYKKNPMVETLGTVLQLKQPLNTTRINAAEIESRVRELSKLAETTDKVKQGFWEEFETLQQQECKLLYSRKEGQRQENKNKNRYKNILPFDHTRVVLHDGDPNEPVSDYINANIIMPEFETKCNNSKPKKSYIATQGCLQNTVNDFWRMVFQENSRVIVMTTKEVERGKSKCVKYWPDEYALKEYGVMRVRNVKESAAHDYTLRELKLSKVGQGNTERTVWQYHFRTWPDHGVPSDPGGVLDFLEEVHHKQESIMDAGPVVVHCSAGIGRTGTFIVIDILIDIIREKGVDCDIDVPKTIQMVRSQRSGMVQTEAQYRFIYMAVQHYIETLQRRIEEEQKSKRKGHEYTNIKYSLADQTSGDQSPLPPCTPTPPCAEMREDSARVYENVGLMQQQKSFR
# Assay: Degradation activity on SHP2 protein in MIA Paca-2 cells (Western blot, DC50)
# Assay type: cell-based
# Parameters: endogenous in cells; host or cells: MIA Paca-2 cells
# Conditions: read-out: Degradation activity for differenct cell lines MIA Paca-2 (DC50)
# Summary of the method: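 Cells were treated 24 h at 37 °C with compound (0.1–100 nM final, 0.1% DMSO). SHP2 was measured by Western blot with GAPDH as loading control, densitometry normalized to DMSO (100%). DC50, the concentration giving 50% degradation, came from a dose-response fit.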
row,SMILES,DC50 [nM]
1,C[C@@H]1OCC2(CCN(c3cnc(Sc4cccc(NC(=O)c5ccc(N6CCC(N7CC=C(c8ccc(C(=O)NCc9ccc%10c(c9)CN(C9CCC(=O)NC9=O)C%10=O)nn8)CC7)CC6)cc5)c4)cn3)CC2)[C@@H]1N (stereo partly shown) [Compound 328],< 100
2,C[C@@H]1OCC2(CCN(c3cnc(Sc4cccc(NC(=O)C5CCC(N6CC7(CCN(c8ccc(C(=O)NCc9ccc%10c(c9)CN(C9CCC(=O)NC9=O)C%10=O)cn8)C7)C6)CC5)c4)cn3)CC2)[C@@H]1N (stereo partly shown) [Compound 489],> 1000
3,CC1(N)CCN(c2cnc(Sc3cccc(NC(=O)c4ccc(N5CCC(N6CC=C(c7ccc(C(=O)Nc8ccc9c(c8)CN(C8CCC(=O)NC8=O)C9=O)nn7)CC6)CC5)cc4)c3)cn2)CC1 (stereo not shown) [Compound 330],< 100
4,CC1(N)CCN(c2cnc(Sc3cccc(NC(=O)c4ccc(N5CCC(N6CCN(c7nnc(C(=O)NCc8ccc9c(c8)CN(C8CCC(=O)NC8=O)C9=O)cc7Cl)CC6)CC5)cc4F)c3)cn2)CC1 (stereo not shown) [Compound 494],< 100
5,C[C@@H]1OCC2(CCN(c3cnc(Sc4cccc(NC(=O)c5ccc(C6CC(N7CC=C(c8ccc(C(=O)NCc9ccc%10c(c9)CN(C9CCC(=O)NC9=O)C%10=O)nc8)CC7)C6)cc5)c4)cn3)CC2)[C@@H]1N (stereo partly shown) [Compound 504],< 100
6,CC1(N)CCN(c2cnc(Sc3cccc(NC(=O)c4cnc(N5CCC(N6CC=C(c7ccc(C(=O)NCc8ccc9c(c8)CN(C8CCC(=O)NC8=O)C9=O)nn7)CC6)CC5)cn4)c3)cn2)CC1 (stereo not shown) [Compound 429],100 to 1000
7,CC1(N)CCN(c2cnc(Sc3cccc(NC(=O)c4ccc(N5CCC(N6CC=C(c7ccc(C(=O)NCc8ccc9c(c8)CN(C8CCC(=O)NC8=O)C9=O)nc7F)CC6)CC5)cc4)c3)cn2)CC1 (stereo not shown) [Compound 481],< 100
8,C[C@@H]1OCC2(CCN(c3cnc(Sc4cccc(NC(=O)[C@H]5C[C@@H]5c5ccc(N6CCN(c7ccc(C(=O)N8CCN(c9ccc%10c(c9)CN(C9CCC(=O)NC9=O)C%10=O)CC8)nn7)CC6)c(F)c5)c4)cn3)CC2)[C@@H]1N (stereo partly shown) [Compound 284],< 100
9,CC1(N)CCN(c2cnc(Sc3cccc(NC(=O)c4ccc(N5CCC(N6CC=C(c7ccc(C(=O)N8CCN(c9ccc%10c(c9)CN(C9CCC(=O)NC9=O)C%10=O)CC8)nc7)C(C)(C)C6)CC5)cc4)c3)cn2)CC1 (stereo not shown) [Compound 304],< 100
10,C[C@@H]1OCC2(CCN(c3cnc(Sc4cccc(NC(=O)CCCN5CCN(c6ccc(C(=O)NCc7ccc8c(c7)C(=O)N(C7CCC(=O)NC7=O)C8)nn6)CC5)c4)cn3)CC2)[C@@H]1N (stereo partly shown) [Compound 262],> 1000
11,CC1(N)CCN(c2cnc(Sc3cccc(NC(=O)c4ccc(-c5ccc(N6CCC(C7=CCC(C(=O)NCc8ccc9c(c8)CN(C8CCC(=O)NC8=O)C9=O)CC7)CC6)cc5)cc4)c3)cn2)CC1 (stereo not shown) [Compound 423],> 1000
12,CC1(N)CCN(c2cnc(Sc3cccc(NC(=O)c4ccc(N5CCC(N6CC=C(c7ccc(C(=O)NCc8ccc9c(c8)CN(C8CCC(=O)NC8=O)C9=O)nn7)CC6)CC5)nc4)c3)cn2)CC1 (stereo not shown) [Compound 326],< 100
13,"C[C@@H]1OCC2(CCN(c3cnc(Sc4cccc(NC(=O)c5ccc(N6CCC(N7CC=C(c8ccc(C(=O)NCc9ccc%10c(c9)CN(C9CCC(=O)NC9=O)C%10=O)nc8F)CC7)CC6)c(F)c5)c4)cn3)CC2)[C@@H]1N (stereo partly drawn) [Compound 483, 1′-(1-(4-((3-((5-((3S,4S)-4-amino-3-methyl-2-oxa-8-azaspiro[4.5]decan-8-yl)pyrazin-2-yl)thio)phenyl)aminoformyl)-2-fluorophenyl)piperidin-4-yl)-N-((2-(2,6-dioxopiperidin-3-yl)-1-oxoisoindol-5-yl)methyl)-2-fluoro-1′,2′,3′,6′-tetrahydro-[3,4′-bipyridine]-6-formamide hydrochloride]",< 100
14,C[C@@H]1OCC2(CCN(c3cnc(Sc4cccc(NCc5ccc(CN6CCN(c7ccc(C(=O)NCc8ccc9c(c8)CN(C8CCC(=O)NC8=O)C9=O)nn7)CC6)cc5)c4)cn3)CC2)[C@@H]1N (stereo partly shown) [Compound 253],> 1000
15,CC1(N)CCN(c2cnc(Sc3cccc(NC(=O)c4cc(N5CCC(N6CC=C(c7ccc(C(=O)NCc8ccc9c(c8)CN(C8CCC(=O)NC8=O)C9=O)nn7)CC6)CC5)cs4)c3)cn2)CC1 (stereo not shown) [Compound 404],> 1000
16,Cc1cc(C(=O)Nc2cccc(Sc3cnc(N4CCC(C)(N)CC4)cn3)c2)ccc1N1CCC(N2CC=C(c3ccc(C(=O)NCc4ccc5c(c4)CN(C4CCC(=O)NC4=O)C5=O)nc3F)CC2)CC1 (stereo not shown) [Compound 469],100 to 1000
17,Cc1cc(C2=CCN(C3CCN(c4ccc(C(=O)Nc5cccc(Sc6cnc(N7CCC8(CC7)CO[C@@H](C)[C@H]8N)cn6)c5)cc4F)CC3)CC2)cnc1C(=O)NCc1ccc2c(c1)CN(C1CCC(=O)NC1=O)C2=O (stereo partly shown) [Compound 462],> 1000
18,CC1(N)CCN(c2cnc(Sc3cccc(NC(=O)c4ccc(N5CCC(N6CCC(c7ccc(C(=O)NCc8ccc9c(c8)CN(C8CCC(=O)NC8=O)C9=O)nc7)CC6)CC5)cc4)c3)cn2)CC1 (stereo not shown) [Compound 372],< 100
19,C[C@@H]1OCC2(CCN(c3cnc(Sc4cccc(NC(=O)COc5ccc(N6CCN(c7ccc(C(=O)NCc8ccc9c(c8)CN(C8CCC(=O)NC8=O)C9=O)nn7)CC6)cc5)c4)cn3)CC2)[C@@H]1N (stereo partly shown) [Compound 263],< 100

row,SMILES,DC50 [nM]
1,"CC1(N)CCN(c2cnc(Sc3cccc(NC(=O)C4CCC(N5CC=C(c6ccc(C(=O)NCc7ccc8c(c7)CN(C7CCC(=O)NC7=O)C8=O)nc6)CC5)CC4)c3)cn2)CC1 (single isomer, unassigned) [Compound 301]",> 1000
2,CC1(N)CCN(c2cnc(Sc3cccc(NC(=O)c4ccc(-c5ccc(N6CCC7(CC6)CC(C(=O)NCc6ccc8c(c6)CN(C6CCC(=O)NC6=O)C8=O)C7)cc5)cc4)c3)cn2)CC1 (stereo not shown) [Compound 415],> 1000
3,Cc1cc(C(=O)NCc2ccc3c(c2)CN(C2CCC(=O)NC2=O)C3=O)ncc1C1=CCN(C2CCN(c3ccc(C(=O)Nc4cccc(Sc5cnc(N6CCC7(CC6)CO[C@@H](C)[C@H]7N)cn5)c4)cc3F)CC2)CC1 (stereo partly shown) [Compound 458],> 1000
4,CC1(N)CCN(c2cnc(Sc3cccc(NC(=O)C4CCC(N5CCN(c6ccc7c(c6)C(=O)N(C6CCC(=O)NC6=O)C7=O)CC5)CC4)c3)cn2)CC1 (stereo not shown) [Compound 270],> 1000
5,Cc1cc(C(=O)Nc2cccc(Sc3cnc(N4CCC(C)(N)CC4)cn3)c2)ccc1N1CCC(N2CCN(c3nnc(C(=O)NCc4ccc5c(c4)CN(C4CCC(=O)NC4=O)C5=O)cc3Cl)CC2)CC1 (stereo not shown) [Compound 507],< 100
6,C[C@@H]1OCC2(CCN(c3cnc(Sc4cccc(NC(=O)c5ccc(CN6CC7(CCN(c8ccc(C(=O)NCc9ccc%10c(c9)CN(C9CCC(=O)NC9=O)C%10=O)cn8)C7)C6)cc5)c4)cn3)CC2)[C@@H]1N (stereo partly shown) [Compound 490],100 to 1000
7,CC1(N)CCN(c2cnc(Sc3cccc(NC(=O)c4ccc(N5CCC(N6CCC(c7ccc(C(=O)NCc8ccc9c(c8)CN(C8CCC(=O)NC8=O)C9=O)cc7)C(F)C6)CC5)c(F)c4)c3)cn2)CC1 (stereo not shown) [Compound 506],< 100
8,CC1(N)CCN(c2cnc(Sc3cccc(NC(=O)c4ccc(C5=CCC(N6CC=C(c7ccc(C(=O)NCc8ccc9c(c8)CN(C8CCC(=O)NC8=O)C9=O)nn7)CC6)CC5)cc4)c3)cn2)CC1 (stereo not shown) [Compound 309],< 100
9,C[C@@H]1OCC2(CCN(c3cnc(Sc4cccc(NC(=O)c5ccc(N6CCC(N7CCN(c8ccc9c(c8)CN(C8CCC(=O)NC8=O)C9=O)CC7)CC6)c(F)c5)c4)cn3)CC2)[C@@H]1N (stereo partly shown) [Compound 280],> 1000
10,CC1(N)CCN(c2cnc(Sc3cccc(NC(=O)C4CCC(N5CCN(c6ccc7c(c6)CN(C6CCC(=O)NC6=O)C7=O)CC5)CC4)c3)cn2)CC1 (stereo not shown) [Compound 271],> 1000
11,CC1(N)CCN(c2cnc(Sc3cccc(NC(=O)c4ccc(N5CCC(C(=O)NCc6ccc7c(c6)CN(C6CCC(=O)NC6=O)C7=O)CC5)c(F)c4)c3)cn2)CC1 (stereo not shown) [Compound 306],> 1000
12,CC1(N)CCN(c2cnc(Sc3cccc(NC(=O)C4CC(N5CCN(c6ccc7c(c6)CN(C6CCC(=O)NC6=O)C7=O)CC5)C4)c3)cn2)CC1 (stereo not shown) [Compound 269],> 1000
13,CC1(N)CCN(c2cnc(Sc3cccc(NC(=O)c4ccc(N5CCC(N6CC=C(c7ccc(C(=O)NCc8ccc9c(c8)CN(C8CCC(=O)NC8=O)C9=O)nn7)CC6)C5)cc4)c3)cn2)CC1 (stereo not shown) [Compound 402],< 100
14,CC1(N)CCN(c2cnc(Sc3cccc(NC(=O)c4ccc(N5CCC(N6CCN(c7cnc(C(=O)NCc8ccc9c(c8)CN(C8CCC(=O)NC8=O)C9=O)cc7Cl)CC6)CC5)nc4)c3)cn2)CC1 (stereo not shown) [Compound 484],< 100
15,CC1(N)CCN(c2cnc(Sc3cccc(NCC4CCC(N5CCN(c6ccc7c(c6)CN(C6CCC(=O)NC6=O)C7=O)CC5)CC4)c3)cn2)CC1 (stereo not shown) [Compound 256],> 1000
16,CC1(N)CCN(c2cnc(Sc3cccc(NC(=O)c4ccc(N5CCC(N6CCN(c7ccc(C(=O)NCc8ccc9c(c8)CN(C8CCC(=O)NC8=O)C9=O)nn7)CC6)CC5)nc4)c3)cn2)CC1 (stereo not shown) [Compound 437],< 100
17,CC1(N)CCN(c2cnc(Sc3cccc(NC(=O)c4ccc(N5CCC(N6CCN(c7cnc(C(=O)NCc8ccc9c(c8)CN(C8CCC(=O)NC8=O)C9=O)cc7Cl)CC6)CC5)cc4F)c3)cn2)CC1 (stereo not shown) [Compound 497],< 100
18,CC1(N)CCN(c2cnc(Sc3cccc(NC(=O)c4ccc(N5CCC(N6CC=C(c7ncc(C(=O)NCc8ccc9c(c8)CN(C8CCC(=O)NC8=O)C9=O)o7)CC6)CC5)c(F)c4)c3)cn2)CC1 (stereo not shown) [Compound 417],> 1000
